From US10266838B2, “Methods for enhancing root growth of plants” (Academia Sinica, priority 2013, dated 2019)

What was measured:
Tainung 67 seedlings = experiment: root growth of rice seedlings on half-strength MS medium containing ABA and/or NPA; assay type: in vivo, Oryza sativa L. cv Tainung 67; design: lateral root morphology: dose or concentration left out as unconfirmed
Source text: Three-day-old seedlings of Tainung 67 (T) transgenic lines were transferred to half-strength MS medium without sugar but containing ABA or sorbitol, and root morphology was examined. (A) Morphology of various branch roots.
Three-day-old seedlings of Tainung 67 (T) transgenic lines that containing seminal roots only were transferred to half-strength MS (½) medium without sugar but containing ABA and/or NPA for 11 days, and root morphology was examined. […] The dots indicate starting points of root growth after transferring to MS medium containing ABA and/or NPA.
Rice cultivars Oryza sativa L. cv Tainung 67 and Oryza sativa L. cv Kitaake were used for all experiments. Plasmid was introduced into Agrobacerium tumefaciens strain EHA101 and rice transformation was performed as described (Chen P-W, et al. (2002) J Biol Chem 277:13641-13649). Homozygous transgenic lines were used in all experiments. For observation of root growth, transgenic rice seeds were germinated on the surface of half-strength MS medium without sugar but with or without ABA. For hydroponic culture, Yoshida solution was used. Seedlings were normally grown in 28′C incubator with 12 hr daily light.
Rice branch roots could be classified into four types: seminal root, also called radical, the first root grows during germination; crown roots, roots emerge from the node of coleoptile; adventitious roots, roots differentiate from the nodes of main stem and tillers, lateral roots, roots branch from above three types of roots and can bear additional large or small lateral roots until the fifth order of branching. The number of each type of root was measured by simple counting. Root length was measured, number of roots was counted, and lateral root density was determined by dividing lateral root number with root length. Error bars represent SD (n=12). Significance levels: *P<0.05, **P<0.01, ***P<0.001.
In medium without any treatment, newly grown crown and lateral roots were more abundant in Tainung 67 transgenic lines than in WT (FIG. 12(A)). […] In the presence of NPA, growth of all types of roots was inhibited (FIG. 12(C)).

PIN genes = experiment: quantitative real-time RT-PCR of auxin transporter genes in roots; assay type: in vivo, rice; conditions: Yoshida solution with or without 0.2 μM ABA for 14 days, root RNA
Protocol: Four-day-old seedlings of Tainung 67 (T) transgenic lines were germinated on MS medium for four days and transfer to full strength Yoshida solution with or without 0.2 μM ABA for 14 days. Total RNA was extracted from roots and subjected to quantitative real-time RT-PCR.
To determine whether the promotion of root growth by HVA1 in transgenic rice involves the auxin (IAA)-dependent pathway, the expression of various genes involved in auxin transport and signaling were determined. […] The rice PIN family is encoded by 12 genes, with expression of each being spatially and temporally regulated (Wang J R, et al. (2009) Mol Plant 2(4):823-831).

rice half seeds = experiment: rice half-seed transient expression assay, GUS activity; assay type: cell-based; conditions: rice half seeds transfected by particle bombardment, with vs without 10 μM ABA for 16 h
Protocol: (§1) (A) Three copies of ABRC321 confer high ABA inducibility in a rice half-seed transient expression assay. Rice half seeds were transfected with plasmids shown in FIG. 1 by particle bombardment, and incubated with (+) or without (−) 10 μM ABA for 16 h, and GUS activity was analyzed. (B) Three copies of ABRC321 confer high ABA inducibility in leaves and roots in transgenic rice. Constructs shown in FIG. 1 were introduced into the rice genome. Leaves and roots of 10-day-old T2 seedlings of four transgenic lines were collected and incubated in water with (+) or without (−) 10 μM ABA for 16 h, and GUS activity was analyzed. Numbers above bars indicate fold induction of GUS activity by ABA. Error bars represent SD (n=3).
Two 56-bp complementary oligonucleotides, containing the CE3 and A2 elements from the HVA1 promoter and the CE1 element from the HVA22 promoter (Shen Q, Zhang P, & Ho T H (1996) Plant Cell 8(7):1107-1119) and restriction sites KpnI, XhoI and XbaI were synthesized, annealed, and designated as ABRC321 (FIG. 1A). ABRC321 was self-ligated in two or three copies in correct orientations. For expression of GUS under the control of ABRC321, 1-3 copies ABRC321 was inserted into the XbaI site in MP64, so that the ABRC321 was fused upstream of the barley Amy64 minimal promoter, generating constructs 1xABRC321-GUS, 2x-ABRC321-GUS and 3xABRC321-GUS (FIG. 1(B)). For expression of HVA1 under the control of 3xABRC321, GUS cDNA in construct 3xABRC321-GUS was replaced with HVA1 cDNA, generating construct 3xABRC321-HVA1 (FIG. 1(C)) (SEQ ID NO: 6).
In this study, we used a […] promoter, ABRC321, to express recombinant HVA1 (rHVA1) in plants. […] ABRC321 was generated by fusion of coupling element CE3 and ABRE2 (A2) from the HVA1 ABRC3 and coupling element CE1 from the HVA22 ABRC1 (Shen Q, Zhang P, & Ho T H (1996) Plant Cell 8(7):1107-1119). The reporter gene GUS was fused downstream of 1-3 tandem repeats of ABRC321 and the Amy64 minimal promoter.

[1] = system: leaves and roots in transgenic rice; experiment: GUS activity in leaves and roots of stably transformed transgenic rice; assay type: in vivo; conditions: 10-day-old T2 seedlings, 10 μM ABA for 16 h, compared among all constructs
Protocol: as §1
All ABRC321:GUS constructs were also used for rice stable transformation.

[2] = 0.2 μM ABA plus 1 μM NPA, 11 days

## CC1=CC(=O)CC(C)(C)[C@@]1(O)/C=C/C(C)=C\C(=O)O [ABA, abscisic acid]
Tainung 67 seedlings; ABA concentration of 0.1 μM, 14 days
  root length and lateral root density: significantly increased
Tainung 67 seedlings; ABA concentrations higher than 0.5 M, 14 days
  root density: decreased
Tainung 67 seedlings; ABA concentrations, 14 days
  lateral root morphology: shorter and thicker
PIN genes
  expression of several PIN genes: up-regulated

## 1xABRC321: synthetic ABA-inducible promoter, one copy of ABRC321 (CE3, A2, CE1 elements) fused upstream of Amy64 minimal promoter and GUS (DNA GGTACCGCAACGCGTGTCCTCCCTACGTGGCGGCTCGAGATTGCCACCGGTCTAGA; synthetic promoter element in GUS reporter construct, further chemistry not given here)
Rice half seeds
  induction of GUS activity by ABA: 19 fold

## O=C(O)c1ccccc1C(=O)Nc1cccc2ccccc12 [NPA, N-(1-naphthyl) phtalamic acid]
Tainung 67 seedlings; [2]
  growth of crown roots and lateral roots: also inhibited
  growth of seminal roots: continued to grow
Tainung 67 seedlings; 1 μM NPA only, 11 days, WT and transgenic lines
  growth of all types of roots: inhibited

B1: 3xABRC321: synthetic ABA-inducible promoter, three tandem copies of ABRC321 driving GUS (nucleic acid)
DNA: GGTACCGCAACGCGTGTCCTCCCTACGTGGCGGCTCGAGATTGCCACCGGGGTACCGCAACGCGTGTCCTCCCTACGTGGCGGCTCGAGATTGCCACCGGGGTACCGCAACGCGTGTCCTCCCTACGTGGCGGCTCGAGATTGCCACCGGTCTAGA
modifications: Synthetic prompter 3XABRC321
notes: synthetic ABA-inducible promoter, three tandem copies of ABRC321 driving GUS
Rice half seeds
  induction of GUS activity by ABA: 33 fold
[1]
  ABA induction of GUS activity in leaves and roots: most highly induced by ABA among all constructs

B2: 2xABRC321: synthetic ABA-inducible promoter, two tandem copies of ABRC321 driving GUS (nucleic acid)
DNA: GGTACCGCAACGCGTGTCCTCCCTACGTGGCGGCTCGAGATTGCCACCGGGGTACCGCAACGCGTGTCCTCCCTACGTGGCGGCTCGAGATTGCCACCGGTCTAGA
modifications: synthetic promoter element in GUS reporter construct, further chemistry not given here
Rice half seeds
  induction of GUS activity by ABA: 20 fold
